Three compounds from ChEMBL document CHEMBL3045497, “An analogue of piperonyl butoxide facilitates the characterisation of metabolic resistance” (Pest Manag Sci, 2009) can be followed below.

SMILES strings stand for the structures. Converted amounts (≈) assume the structure as drawn. The source made the active and inactive calls. The rule behind the calls is not given here.

In general, IC50 refers to the midpoint of a concentration-inhibition curve. What is called LC50 is the concentration that kills 50% of the test population.

The nature of assay [1]: Inhibition of B-type Bemisia tabaci (sweet potato whitefly) esterase using 31.25 uM of 1-naphthyl butyrate as substrate after 120 min.
Assay [2] deals with Bemisia tabaci. Briefly: Non-competitive inhibition of B-type Bemisia tabaci (sweet potato whitefly) esterase using 1-naphthyl butyrate as substrate after 10 to 120 min.
Assay [3] is described as follows: Inhibition of B-type Bemisia tabaci (sweet potato whitefly) esterase using 500 uM of 1-naphthyl butyrate as substrate after 120 min.
Assay [4] in a line: Inhibition of B-type Bemisia tabaci (sweet potato whitefly) esterase using 500 uM of 1-naphthyl butyrate as substrate after 10 min.
The subject of assay [5] is Bemisia tabaci. Briefly: Inhibition of B-type Bemisia tabaci (sweet potato whitefly) oxidase-mediated O-deethylation using 18 uM of 7-ethoxycoumarin as substrate assessed as residual activity after 10 min relative to control.
Assay [6] deals with Bemisia tabaci. Briefly: Inhibition of B-type Bemisia tabaci (sweet potato whitefly) oxidase-mediated O-deethylation using 285 uM of 7-ethoxycoumarin as substrate assessed as residual activity after 120 min relative to control.
Assay [7] has as its system Bemisia tabaci. Briefly: Inhibition of B-type Bemisia tabaci (sweet potato whitefly) oxidase-mediated O-deethylation using 285 uM of 7-ethoxycoumarin as substrate assessed as residual activity after 10 min relative to control.
Assay [8] deals with Bemisia tabaci. Briefly: Reversible inhibition of B-type Bemisia tabaci (sweet potato whitefly) esterase using 1-naphthyl butyrate as substrate after 10 to 120 min.
The subject of assay [9] is Bemisia tabaci. Briefly: Resistant factor, ratio of LC50 for […] (sweet potato whitefly) in presence of EN 16/5-1. The class given is functional.
Assay [10] concerns Bemisia tabaci. Briefly: Resistant factor, ratio of LC50 for […] (sweet potato whitefly) in presence of PBO. The assay is classed as functional.
Assay [11] concerns Bemisia tabaci. Briefly: Resistant factor, ratio of LC50 for drug-susceptible Bemisia tabaci SUD-S (sweet potato whitefly) to LC50 for drug-resistant Bemisia tabaci GUAMIX (sweet potato whitefly). The class given is functional.
Assay [12] deals with Bemisia tabaci. Briefly: Insecticidal activity against drug-resistant Bemisia tabaci GUAMIX (sweet potato whitefly) in cotton plant leaf assessed as mortality after 48 hr in presence of EN 16/5-1 pretreated 5 hr before compound challenge. The class given is functional.
Assay [13] concerns Bemisia tabaci. Briefly: Insecticidal activity against drug-resistant Bemisia tabaci GUAMIX (sweet potato whitefly) in cotton plant leaf assessed as mortality after 48 hr. The assay is classed as functional.
Assay [14] concerns Bemisia tabaci. Briefly: Insecticidal activity against drug-susceptible Bemisia tabaci SUD-S (sweet potato whitefly) in cotton plant leaf assessed as mortality after 48 hr. The assay is classed as functional.
Assay [15] deals with Bemisia tabaci. Briefly: Insecticidal activity against drug-susceptible Bemisia tabaci SUD-S (sweet potato whitefly) in cotton plant leaf assessed as mortality after 48 hr in presence of PBO pretreated 5 hr before compound challenge. The assay is classed as functional.
Assay [16] relates to Bemisia tabaci. Briefly: Insecticidal activity against drug-resistant Bemisia tabaci GUAMIX (sweet potato whitefly) in cotton plant leaf assessed as mortality after 48 hr in presence of PBO pretreated 5 hr before compound challenge. The assay is classed as functional.
Assay [17] relates to Bemisia tabaci. Briefly: Insecticidal activity against drug-susceptible Bemisia tabaci SUD-S (sweet potato whitefly) in cotton plant leaf assessed as mortality after 48 hr in presence of EN 16/5-1 pretreated 5 hr before compound challenge. The class given is functional.

On to `CCCCOCCOCCOCc1cc2c(cc1CCC)CCO2`, for which the results for the half-inhibitory concentration (IC50) in [1], in [3] and in assay [4] were 4.8 µM, 5.4 µM and 6.5 µM, respectively. The inhibition entry with Bemisia tabaci [2] and in the assay with Bemisia tabaci [8] was “Active” each time. Further, the Activity is 42% with Bemisia tabaci [5], 82% with Bemisia tabaci [6] and 78% with Bemisia tabaci [7].
Consider `O=[N+]([O-])/N=C1\NCCN1Cc1ccc(Cl)nc1` [IMIDACLOPRID], for which the RatioLC50 in the assay with Bemisia tabaci [9] is 900; in the assay on Bemisia tabaci [10] it was 65.5; in the assay on Bemisia tabaci [11], greater than 670. The LC50 in the assay with Bemisia tabaci [12] is 847 µg/mL; in the assay on Bemisia tabaci [13], greater than 1000 µg/mL; with Bemisia tabaci [14] it was 1.49 µg/mL (≈ 5.83 µM); in the assay on Bemisia tabaci [15], 0.49 µg/mL; with Bemisia tabaci [16], 32.1 µg/mL; in the assay on Bemisia tabaci [17], 0.94 µg/mL.
Consider `CCCCOCCOCCOCc1cc2c(cc1CCC)OCO2` [PIPERONYL BUTOXIDE], for which the concentration for half-maximal inhibition (IC50) amounted to 5.4 µM in assay [1], 5.1 µM in assay [3] and 4.7 µM in assay [4]. Moreover, the inhibition result in the assay on Bemisia tabaci [2] and with Bemisia tabaci [8] was “Active” each time. Besides, the Activity with Bemisia tabaci [5] worked out at 16%; in the assay on Bemisia tabaci [6], 27%; in the assay on Bemisia tabaci [7], 24%.
